Drawing on US8455000B2, “Resorbable polymer compositions for use in medicine, dentistry, and surgery” (Syncera Inc., priority 2006, dated 2013), this text covers solubility in water for one compound.

Molecules are shown by their SMILES. Where two headings read alike, the source gives them in different places.

Series [1] is described as follows: Retention and release of dyes from PE-PEG matrix into phosphate buffered saline. The class given is physicochemical. The following applies: dye only, tube 10. The procedure:
Method: C50 PE-PEG16 was blended with PLURONIC™ L44 in a ratio of 7:3 w/w as described in Example 3. Rose Bengal (100 mg) and SR24 (100 mg) were mixed with 5 g aliquots of molten PE-PEG and PE-PEG/poloxamer blend, and maintained at 110° C. with mixing until the dye was fully dissolved.
Ten small (6 ml) glass test tubes were prepared as shown in Tables 5-6, Tubes 4-7 contained 0.5 g of the PE-PEG and PE-PEG/polymer samples mixed with dye, tubes 2, 3, 8 and 9 contained 0.5 g PE-PEG and PE-PEG/polymer samples (without dye) and 10 mg of dye added separately (after the PE-PEG or blend had solidified), tubes 1 and 10 contained only the dye, as controls.
Each glass test tube was affixed to the inside of a 50 ml polypropylene centrifuge tube with a silicone adhesive. Fifty ml of phosphate buffered saline was added to each of the tubes, and they were rocked gently for six days. At appropriate time points, the concentration of dye in the buffer was measured using a spectrophotometer. The SR24 dye was measured at 516 nm, the Rose Bengal concentration was estimated from the maximal absorption λmax from 540 nm to 560 nm.

For series [2] the following is noted: in words; cited from earlier work.

As to `Cc1ccccc1/N=N/c1ccc(/N=N/c2c(O)ccc3ccccc23)c(C)c1` [SR24, Solvent Red 24], the solubility in water result was “zero solubility” in series [1] and “negligible solubility” in series [2].
